Test results reported in paper PMC3818959 (Journal of Ginseng Research, 2013).

Target: KCNQ1 (IKs channel, KCNQ1 + KCNE1) (Homo sapiens, UniProt P51787)
Assay: cell-based

Chain of KCNQ1 (IKs channel, KCNQ1 + KCNE1) (P51787 whole entry): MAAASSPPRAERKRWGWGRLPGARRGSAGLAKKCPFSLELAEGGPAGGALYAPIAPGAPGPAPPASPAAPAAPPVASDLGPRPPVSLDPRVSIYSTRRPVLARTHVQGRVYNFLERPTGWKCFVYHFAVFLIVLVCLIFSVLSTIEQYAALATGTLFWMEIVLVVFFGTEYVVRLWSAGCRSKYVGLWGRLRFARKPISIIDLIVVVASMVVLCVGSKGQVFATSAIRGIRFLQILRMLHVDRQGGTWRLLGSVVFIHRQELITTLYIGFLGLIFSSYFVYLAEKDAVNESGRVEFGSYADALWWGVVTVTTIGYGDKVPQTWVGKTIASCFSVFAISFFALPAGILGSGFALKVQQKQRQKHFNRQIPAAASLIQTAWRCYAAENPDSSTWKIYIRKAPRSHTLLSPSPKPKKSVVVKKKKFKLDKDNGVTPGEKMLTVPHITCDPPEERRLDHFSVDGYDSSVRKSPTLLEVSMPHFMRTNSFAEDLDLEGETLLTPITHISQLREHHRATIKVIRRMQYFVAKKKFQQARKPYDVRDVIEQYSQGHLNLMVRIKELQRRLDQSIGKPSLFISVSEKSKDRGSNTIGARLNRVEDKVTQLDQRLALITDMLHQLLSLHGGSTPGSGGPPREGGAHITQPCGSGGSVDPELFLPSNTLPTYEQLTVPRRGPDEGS

CC(C)=CCC[C@](C)(O)[C@H]1CC[C@]2(C)[C@@H]1[C@H](O)C[C@@H]1[C@@]3(C)CC[C@H](O)C(C)(C)[C@@H]3[C@@H](O)C[C@]12C [PPT, protopanaxatriol]
IC50: 5.18 ± 0.13 µM
